Test results published in patent US20250339567A1, “COMPOUNDS WITH IMPROVED PHARMACOKINETICS FOR IMAGING AND THERAPY OF CANCER” (priority 2019, published 2025).
Starred links: 1 amine or outer side, 2 acyl side, 3 side chain; linkers in the order of their positions; H or OH if unused. Non-standard residues stand in square brackets, D forms with d. Residues, ends and D or L forms follow the SMILES beside them. *: point of attachment. DOTA = O=C(O)CN1CCN(CC(=O)O)CCN(CC(=O)*)CCN(CC(=O)O)CC1; Sta = CC(C)C[C@H](N)[C@@H](O)CC(=O)O; Bta = N[C@@H](Cc1csc2ccccc12)C(=O)O; Gly(cPent) = N[C@H](C(=O)O)C1CCCC1; Trx = NC[C@H]1CC[C@H](C(=O)O)CC1; X1 = O=C(CN1CCC(N[*:1])CC1)[*:2]; Chg = N[C@H](C(=O)O)C1CCCCC1; hSer = N[C@@H](CCO)C(=O)O; Nle = CCCC[C@H](N)C(=O)O; βAla = NCCC(=O)O; Sar = CNCC(=O)O

Test: Plasma studies: metabolic stability in vitro in human plasma (radio RP-HPLC)
Type: in vitro ADME
Method: Metabolic stability in vitro was determined applying a procedure published by Linder et al. that was slightly modified. Immediately after labeling, human (200 μL) or murine (100 μL) plasma was added and the mixture was incubated at 37° C. for 72±2 h (or 6±0.5 h). Proteins were precipitated by treatment with ice-cold EtOH (150 μL [human], 100 μL [murine]) and ice-cold MeCN (450 μL [human], 300 μL [murine]), followed by centrifugation for 20 min at 13000 rpm. The supernatants were decanted and further analyzed using radio RP-HPLC. […]

| Amount of intact tracer after incubation in human plasma for 72 ± 2 h (n = 2) | Structure (SMILES) |
| --- | --- |
| 13.8 ± 0.7 | CC(C)C[C@H](NC(=O)C[C@H](O)[C@H](CC(C)C)NC(=O)[C@H](Cc1c[nH]cn1)NC(=O)CN(C)C(=O)[C@@H](NC(=O)[C@H](C)NC(=O)[C@H](Cc1c[nH]c2ccccc12)NC(=O)[C@H](CCO)NC(=O)[C@@H](Cc1ccccc1)NC(=O)CN1CCC(NC(=O)CN2CCN(CC(=O)O)CCN(CC(=O)O)CCN(CC(=O)O)CC2)CC1)C(C)C)C(N)=O [DOTA-[Hse^7, N—Me-Gly^11]MJ9] ({DOTA}-[X1][dF][hSer]WAV[Sar]H[Sta]L-NH2) |
| 14.5 ± 0.8 | CC(C)C[C@H](NC(=O)C[C@H](O)[C@H](CC(C)C)NC(=O)[C@H](Cc1c[nH]cn1)NC(=O)CNC(=O)[C@@H](NC(=O)[C@H](CO)NC(=O)[C@H](Cc1c[nH]c2ccccc12)NC(=O)[C@H](CCO)NC(=O)[C@@H](Cc1ccccc1)NC(=O)CN1CCC(NC(=O)CN2CCN(CC(=O)O)CCN(CC(=O)O)CCN(CC(=O)O)CC2)CC1)C(C)C)C(N)=O [DOTA-[Hse^7, Ser^9]MJ9] ({DOTA}-[X1][dF][hSer]WSVGH[Sta]L-NH2) |
| 0.9 ± 0.9 | CCCC[C@H](NC(=O)[C@H](Cc1ccccc1)NC(=O)[C@H](Cc1c[nH]cn1)NC(=O)CCNC(=O)[C@@H](NC(=O)[C@H](C)NC(=O)[C@H](Cc1c[nH]c2ccccc12)NC(=O)[C@H](CCO)NC(=O)[C@@H](Cc1ccccc1)NC(=O)CN1CCN(CC(=O)O)CCN(CC(=O)O)CCN(CC(=O)O)CC1)C(C)C)C(N)=O [DOTA-[Hse^7]UL] ({DOTA}-[dF][hSer]WAV[βAla]HF[Nle]-NH2) |
| 6.3 ± 0.6 | CC(C)C[C@H](NC(=O)C[C@H](O)[C@H](CC(C)C)NC(=O)[C@H](Cc1c[nH]cn1)NC(=O)CN(C)C(=O)[C@@H](NC(=O)[C@H](C)NC(=O)[C@H](Cc1c[nH]c2ccccc12)NC(=O)[C@H](CCC(N)=O)NC(=O)[C@@H](Cc1ccccc1)NC(=O)CN1CCC(NC(=O)CN2CCN(CC(=O)O)CCN(CC(=O)O)CCN(CC(=O)O)CC2)CC1)C(C)C)C(N)=O [DOTA-[N—Me-Gly^11]MJ9] |
| 9.8 ± 4.3 | CC(C)C[C@H](NC(=O)C[C@H](O)[C@H](CC(C)C)NC(=O)[C@H](Cc1c[nH]cn1)NC(=O)CNC(=O)[C@@H](NC(=O)[C@H](CO)NC(=O)[C@H](Cc1c[nH]c2ccccc12)NC(=O)[C@H](CCC(N)=O)NC(=O)[C@@H](Cc1ccccc1)NC(=O)CN1CCC(NC(=O)CN2CCN(CC(=O)O)CCN(CC(=O)O)CCN(CC(=O)O)CC2)CC1)C(C)C)C(N)=O [DOTA-[Ser^9]MJ9] ({DOTA}-[X1][dF]QWSVGH[Sta]L-NH2) |
| 27.1 ± 2.1 | CC(C)C[C@H](NC(=O)C[C@H](O)[C@H](CC(C)C)NC(=O)[C@H](Cc1c[nH]cn1)NC(=O)CNC(=O)[C@@H](NC(=O)[C@H](C)NC(=O)[C@H](Cc1csc2ccccc12)NC(=O)[C@H](CCC(N)=O)NC(=O)[C@@H](Cc1ccccc1)NC(=O)[C@H]1CC[C@H](CNC(=O)CN2CCN(CC(=O)O)CCN(CC(=O)O)CCN(CC(=O)O)CC2)CC1)C(C)C)C(N)=O [DOTA-[Txa^5, Bta^8]MJ9] ({DOTA-Trx}-[dF]Q[Bta]AVGH[Sta]L-NH2) |
| 26.7 ± 1.3 | CC(C)C[C@H](NC(=O)C[C@H](O)[C@H](CC(C)C)NC(=O)[C@H](Cc1c[nH]cn1)NC(=O)CNC(=O)[C@@H](NC(=O)[C@H](C)NC(=O)[C@H](Cc1c[nH]c2ccccc12)NC(=O)[C@H](CCO)NC(=O)[C@@H](Cc1ccccc1)NC(=O)[C@H]1CC[C@H](CNC(=O)CN2CCN(CC(=O)O)CCN(CC(=O)O)CCN(CC(=O)O)CC2)CC1)C(C)C)C(N)=O [DOTA-[Txa^5, Hse^7]MJ9] ({DOTA-Trx}-[dF][hSer]WAVGH[Sta]L-NH2) |
| 30.6 ± 0.8 | CC(C)C[C@H](NC(=O)C[C@H](O)[C@H](CC(C)C)NC(=O)[C@H](Cc1c[nH]cn1)NC(=O)CNC(=O)[C@@H](NC(=O)[C@H](C)NC(=O)[C@](C)(Cc1c[nH]c2ccccc12)NC(=O)[C@H](CCC(N)=O)NC(=O)[C@@H](Cc1ccccc1)NC(=O)[C@H]1CC[C@H](CNC(=O)CN2CCN(CC(=O)O)CCN(CC(=O)O)CCN(CC(=O)O)CC2)CC1)C(C)C)C(N)=O [DOTA-[Txa^5, α-Me-Trp^8]MJ9] |
| 24.8 ± 0.3 | CC(C)C[C@H](NC(=O)C[C@H](O)[C@H](CC(C)C)NC(=O)[C@H](Cc1c[nH]cn1)NC(=O)CNC(=O)[C@@H](NC(=O)[C@H](C)NC(=O)[C@H](Cc1c[nH]c2ccccc12)NC(=O)[C@H](CCC(N)=O)NC(=O)[C@@H](Cc1ccccc1)NC(=O)[C@H]1CC[C@H](CNC(=O)CN2CCN(CC(=O)O)CCN(CC(=O)O)CCN(CC(=O)O)CC2)CC1)C(C)C)C(N)=O [DOTA-[Txa^5]MJ9] |
| 6.6 ± 2.0 | CC(C)C[C@H](NC(=O)C[C@H](O)[C@H](CC(C)C)NC(=O)[C@H](Cc1c[nH]cn1)NC(=O)CNC(=O)[C@@H](NC(=O)[C@H](C)NC(=O)[C@H](Cc1csc2ccccc12)NC(=O)[C@H](CCC(N)=O)NC(=O)[C@@H](CCCNC(=N)N)NC(=O)CN1CCC(NC(=O)CN2CCN(CC(=O)O)CCN(CC(=O)O)CCN(CC(=O)O)CC2)CC1)C(C)C)C(N)=O [DOTA-[arg^6, Bta^8]MJ9] ({DOTA}-[X1][dR]Q[Bta]AVGH[Sta]L-NH2) |

The next lines start with the molecule.

| Structure (SMILES) | Amount of intact tracer after incubation in human plasma for 72 ± 2 h (n = 2) |
| --- | --- |
| CC(C)C[C@H](NC(=O)C[C@H](O)[C@H](CC(C)C)NC(=O)[C@H](Cc1c[nH]cn1)NC(=O)CNC(=O)[C@@H](NC(=O)[C@H](C)NC(=O)[C@H](Cc1csc2ccccc12)NC(=O)[C@H](CCC(N)=O)NC(=O)[C@@H](Cc1ccccc1)NC(=O)CN1CCC(NC(=O)CN2CCN(CC(=O)O)CCN(CC(=O)O)CCN(CC(=O)O)CC2)CC1)C1CCCCC1)C(N)=O [DOTA-[Bta^8, Chg^10]MJ9] ({DOTA}-[X1][dF]Q[Bta]A[Chg]GH[Sta]L-NH2) | 2.5 ± 1.0 |
| CC(C)C[C@H](NC(=O)C[C@H](O)[C@H](CC(C)C)NC(=O)[C@H](Cc1c[nH]cn1)NC(=O)CNC(=O)[C@@H](NC(=O)[C@H](C)NC(=O)[C@H](Cc1csc2ccccc12)NC(=O)[C@H](CCC(N)=O)NC(=O)[C@@H](Cc1ccccc1)NC(=O)CN1CCC(NC(=O)CN2CCN(CC(=O)O)CCN(CC(=O)O)CCN(CC(=O)O)CC2)CC1)C1CCCC1)C(N)=O [DOTA-[Bta^8, Cpg^10]MJ9] ({DOTA}-[X1][dF]Q[Bta]A[Gly(cPent)]GH[Sta]L-NH2) | 2.2 ± 0.5 |
| CC(C)C[C@H](NC(=O)C[C@H](O)[C@H](CC(C)C)NC(=O)[C@H](Cc1c[nH]cn1)NC(=O)CN(C)C(=O)[C@@H](NC(=O)[C@H](C)NC(=O)[C@H](Cc1csc2ccccc12)NC(=O)[C@H](CCC(N)=O)NC(=O)[C@@H](Cc1ccccc1)NC(=O)CN1CCC(NC(=O)CN2CCN(CC(=O)O)CCN(CC(=O)O)CCN(CC(=O)O)CC2)CC1)C(C)C)C(N)=O [DOTA-[Bta^8, N—Me-Gly^11]MJ9] ({DOTA}-[X1][dF]Q[Bta]AV[Sar]H[Sta]L-NH2) | 3.0 ± 0.2 |
| CC(C)C[C@H](NC(=O)C[C@H](O)[C@H](CC(C)C)NC(=O)[C@H](Cc1c[nH]cn1)NC(=O)CNC(=O)[C@@H](NC(=O)[C@H](CO)NC(=O)[C@H](Cc1csc2ccccc12)NC(=O)[C@H](CCC(N)=O)NC(=O)[C@@H](Cc1ccccc1)NC(=O)CN1CCC(NC(=O)CN2CCN(CC(=O)O)CCN(CC(=O)O)CCN(CC(=O)O)CC2)CC1)C(C)C)C(N)=O [DOTA-[Bta^8, Ser^9]MJ9] ({DOTA}-[X1][dF]Q[Bta]SVGH[Sta]L-NH2) | 1.5 ± 0.2 |
| CCCC[C@H](NC(=O)[C@H](Cc1ccccc1)NC(=O)[C@H](Cc1c[nH]cn1)NC(=O)CCNC(=O)[C@@H](NC(=O)[C@H](C)NC(=O)[C@H](Cc1csc2ccccc12)NC(=O)[C@H](CCC(N)=O)NC(=O)[C@@H](Cc1ccccc1)NC(=O)CN1CCN(CC(=O)O)CCN(CC(=O)O)CCN(CC(=O)O)CC1)C(C)C)C(N)=O [DOTA-[Bta^8]UL] ({DOTA}-[dF]Q[Bta]AV[βAla]HF[Nle]-NH2) | 0 ± 0 |
| CC(C)C[C@H](NC(=O)C[C@H](O)[C@H](CC(C)C)NC(=O)[C@H](Cc1c[nH]cn1)NC(=O)CNC(=O)[C@@H](NC(=O)[C@H](C)NC(=O)[C@H](Cc1c[nH]c2ccccc12)NC(=O)[C@H](CCC(N)=O)NC(=O)[C@@H](Cc1ccccc1)NC(=O)CN1CCC(NC(=O)CN2CCN(CC(=O)O)CCN(CC(=O)O)CCN(CC(=O)O)CC2)CC1)C1CCCCC1)C(N)=O [DOTA-[Chg^10]MJ9] ({DOTA}-[X1][dF]QWA[Chg]GH[Sta]L-NH2) | 8.4 ± 0.9 |
| CC(C)C[C@H](NC(=O)C[C@H](O)[C@H](CC(C)C)NC(=O)[C@H](Cc1c[nH]cn1)NC(=O)CNC(=O)[C@@H](NC(=O)[C@H](C)NC(=O)[C@H](Cc1c[nH]c2ccccc12)NC(=O)[C@H](CCC(N)=O)NC(=O)[C@@H](Cc1ccccc1)NC(=O)CN1CCC(NC(=O)CN2CCN(CC(=O)O)CCN(CC(=O)O)CCN(CC(=O)O)CC2)CC1)C1CCCC1)C(N)=O [DOTA-[Cpg^10]MJ9] ({DOTA}-[X1][dF]QWA[Gly(cPent)]GH[Sta]L-NH2) | 25.3 ± 1.4 |
| CC(C)C[C@H](NC(=O)C[C@H](O)[C@H](CC(C)C)NC(=O)[C@H](Cc1c[nH]cn1)NC(=O)CNC(=O)[C@@H](NC(=O)[C@H](C)NC(=O)[C@H](Cc1c[nH]c2ccccc12)NC(=O)[C@H](CCO)NC(=O)[C@@H](Cc1ccccc1)NC(=O)CN1CCC(NC(=O)CN2CCN(CC(=O)O)CCN(CC(=O)O)CCN(CC(=O)O)CC2)CC1)C1CCCCC1)C(N)=O [DOTA-[Hse^7, Chg^10]MJ9] ({DOTA}-[X1][dF][hSer]WA[Chg]GH[Sta]L-NH2) | 33.4 ± 1.0 |
| CC(C)C[C@H](NC(=O)C[C@H](O)[C@H](CC(C)C)NC(=O)[C@H](Cc1c[nH]cn1)NC(=O)CNC(=O)[C@@H](NC(=O)[C@H](C)NC(=O)[C@H](Cc1c[nH]c2ccccc12)NC(=O)[C@H](CCO)NC(=O)[C@@H](Cc1ccccc1)NC(=O)CN1CCC(NC(=O)CN2CCN(CC(=O)O)CCN(CC(=O)O)CCN(CC(=O)O)CC2)CC1)C1CCCC1)C(N)=O [DOTA-[Hse^7, Cpg^10]MJ9] ({DOTA}-[X1][dF][hSer]WA[Gly(cPent)]GH[Sta]L-NH2) | 28.1 ± 2.4 |
